Laboratory results published in ChEMBL document CHEMBL4742385 (2019).

Columns and labels:
SW480 = assay: Antitumor activity against human SW480 cells xenografted in BALB/c nude mouse assessed as inhibition of tumor growth at 50 mg/kg, po administered once daily measured after 14 days relative to control; format: functional; settings: time 14 day
[1] = molecular target: CDK8/Cyclin C (Homo sapiens) (UniProt P49336+P24863); assay: Inhibition of human CDK8/Cyc C expressed in Sf21 cells at 1 uM measured after 1 hr by fluorescence plate reader relative to control
RPMI-8226 = assay: Antiproliferative activity against human RPMI-8226 assessed as inhibition of cell growth at 1 uM after 8 days measured after Celltiter-Glo assay relative to control; format: functional; settings: Homo sapiens, RPMI-8226, 192 h, time 8 day
[2] = molecular target: Cyclin-C/Cyclin-dependent kinase 19 (Homo sapiens) (UniProt Q9BWU1+P24863); assay: Inhibition of humanGST-tagged CDK19/Cyc C expressed in Sf21 cells at 1 uM measured after 1 hr by fluorescence plate reader relative to control

inhibition [1] [%]	inhibition [2] [%]	SMILES	T/C (SW480) [%]	inhibition at 1 µM (RPMI-8226) [%]
102	100	Cn1cc(-c2ccncc2/C=C/C(=O)Nc2ccc3c(c2)CN(CC(F)(F)F)CC3)cn1	43	59
104	100	O=C(/C=C/c1cncc(F)c1-c1cnn(C2CC2)c1)Nc1ccc2c(c1)CN(CC(F)(F)F)C2	29	58
98	102	Cn1cc(-c2ccncc2/C=C/C(=O)Nc2ccc3c(c2)CN(CC(F)(F)F)C3)cn1	31	64
99	99	O=C(/C=C/c1cnccc1-c1cnn(C2CC2)c1)Nc1ccc(CN2CCOCC2)cc1F	36	53
103	102	Cn1cc(-c2c(F)cncc2/C=C/C(=O)Nc2ccc(CN3CC(F)(F)C3)cc2)cn1	36	65
99	97	Cn1cc(-c2ccncc2/C=C/C(=O)Nc2ccc(CN3CCOCC3)c(F)c2)cn1		62
97	94	O=C(/C=C/c1cnccc1-c1cnn(C2CC2)c1)Nc1ccc2c(c1)CN(CC(F)(F)C(F)(F)F)CC2		57
87	101	Cn1cnc2ccc(-c3c(F)cncc3/C=C/C(=O)Nc3ccc(CN4CC(F)(F)C4)cc3)cc21		67
92	102	O=C(/C=C/c1cnccc1-c1cnn(C2CC2)c1)Nc1ccc(CN2CCOCC2)cc1	37	53
97	101	Cn1cc(-c2ccncc2/C=C/C(=O)Nc2ccc(CN3CCOC(C)(C)C3)cc2)cn1		61
97	93	Cn1cc2cc(-c3ccncc3/C=C/C(=O)Nc3ccc(CN4CCOCC4)cc3)ccc2n1		52
101	100	O=C(/C=C/c1cnccc1-c1cccs1)Nc1ccc(CCc2nnco2)cc1		59
100	96	Cn1cc(-c2ccncc2/C=C/C(=O)Nc2ccc(CN3CC4CC3CO4)cc2)cn1 (centres undefined)		58
95	93	CC(=O)N(C)Cc1cc(NC(=O)/C=C/c2cnccc2-c2cnn(C)c2)ccc1C		49
95	96	Cn1cc(-c2ccncc2/C=C/C(=O)Nc2ccc(Oc3ccncc3)cc2)cn1		54
99	101	CC(C)(F)Cc1ccc(NC(=O)/C=C/c2cncc(F)c2-c2cnn(C3CC3)c2)cc1		62

inhibition [1] [%]	inhibition [2] [%]	SMILES	T/C (SW480) [%]	inhibition at 1 µM (RPMI-8226) [%]
101	99	Cn1cc(-c2ccncc2/C=C/C(=O)Nc2ccc(CNCC(F)(F)C(F)(F)F)cc2)cn1		56
98	99	Cn1cc(-c2ccncc2/C=C/C(=O)Nc2ccc3c(ccn3C)c2)cn1		55
100	74	Cn1cc(-c2ccncc2/C=C/C(=O)Nc2ccc(CN3CCN4CCCC4C3)cc2)cn1 (centres undefined)		59
99	97	Cn1cc(-c2ccncc2/C=C/C(=O)Nc2ccc(CN3CCOCC3)cc2F)cn1		56
100	97	Cn1ccc2cc(NC(=O)/C=C/c3cnccc3-c3cnn(C4CC4)c3)ccc21		61
105	74	O=C(/C=C/c1cnccc1-c1cnn(C2CC2)c1)Nc1ccc(CN2CC(F)(F)C2)cc1F		51
96	98	CC(c1ccc(NC(=O)/C=C/c2cnccc2-c2cnn(C)c2)cc1)N1CCOCC1 (centres undefined)		57
100	100	COCc1ccc(NC(=O)/C=C/c2cnccc2-c2cnn(C)c2)cc1		65
97	99	Cn1cc(-c2ccncc2/C=C/C(=O)Nc2ccc(CN3CCOCC3)c(O)c2)cn1		54
		O=C(/C=C/c1cnccc1-c1cnn(C2CC2)c1)Nc1ccc(CN2CC(F)(F)C2)cc1	51	58
95	96	O=C(/C=C/c1cnccc1-c1ccc2ncn(CC3CC3)c2c1)Nc1ccc(CN2CCOCC2)cc1		60
98	99	Cc1cc(NC(=O)/C=C/c2cnccc2-c2cnn(C3CC3)c2)ccc1CN1CCOCC1		62
95	95	Cc1ncc(-c2ccncc2/C=C/C(=O)Nc2ccc(CN3CCOCC3)cc2)s1		54
101	100	O=C(/C=C/c1cnccc1-c1ccc2nccn2c1)Nc1ccc(CN2CCOCC2)cc1		52
101	96	O=C(/C=C/c1cncc(F)c1-c1cnn(C2CC2)c1)Nc1ccc(CN2CCOCC2)cc1F	36	64
